Experimental data as given in the supplement of paper PMC10307832.

Columns and labels:
Assay in all cases: relative viability (nuclei count vs DMSO), 5 days (fraction); higher = more cells survive
AZ3146 + Phenformin = compound: CN1CCC(CC1)OC2=CC(=C(C=C2)NC3=NC=C4C(=N3)N(C(=O)N4C)C5CCCC5)OC [AZ3146] + N=C(N)NC(=N)NCCc1ccccc1 [Phenformin] (partner 250 µM)
Method in brief: (§1)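 Lung cancer cell lines were pin-tool dosed in 1536-well plates on the day after seeding, with either a lone drug or a fixed anchor-drug dose plus five library-drug doses (not always all listed) in √10 steps. Nuclei were counted on 4× images after 5 days. Relative viability is the ratio of treated-well to vehicle-well nuclei counts, with each value a median of duplicate plates.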

AZ3146 + Decitabine = compound: CN1CCC(CC1)OC2=CC(=C(C=C2)NC3=NC=C4C(=N3)N(C(=O)N4C)C5CCCC5)OC [AZ3146] + Nc1ncn([C@H]2C[C@H](O)[C@@H](CO)O2)c(=O)n1 [Decitabine] (partner 2 µM)
Method in brief: as §1

AZ3146 + Tozasertib = compound: CN1CCC(CC1)OC2=CC(=C(C=C2)NC3=NC=C4C(=N3)N(C(=O)N4C)C5CCCC5)OC [AZ3146] + Cc1cc(Nc2cc(N3CCN(C)CC3)nc(Sc3ccc(NC(=O)C4CC4)cc3)n2)n[nH]1 [Tozasertib] (partner 0.1 µM)
Method in brief: as §1

GSK-J4 + Navitoclax = compound: CCOC(=O)CCNc1cc(N2CCc3ccccc3CC2)nc(-c2ccccn2)n1 [GSK-J4] + CC1(C)CCC(c2ccc(Cl)cc2)=C(CN2CCN(c3ccc(C(=O)NS(=O)(=O)c4ccc(N[C@H](CCN5CCOCC5)CSc5ccccc5)c(S(=O)(=O)C(F)(F)F)c4)cc3)CC2)C1 [Navitoclax] (partner 0.5 µM)
Method in brief: as §1

What does the source list for UMC-11?
relative viability (AZ3146 + Phenformin; first compound 0.08 µM): 0.299; relative viability (AZ3146 + Phenformin; first compound 0.253 µM): 0.311; relative viability (AZ3146 + Phenformin; first compound 0.8 µM): 0.345; relative viability (AZ3146 + Phenformin; first compound 2.53 µM): 0.317; relative viability (AZ3146 + Phenformin; first compound 8 µM): 0.263; relative viability (AZ3146 + Decitabine; first compound 0.08 µM): 0.435; relative viability (AZ3146 + Decitabine; first compound 0.253 µM): 0.558; relative viability (AZ3146 + Decitabine; first compound 0.8 µM): 0.454; relative viability (AZ3146 + Decitabine; first compound 2.53 µM): 0.579; relative viability (AZ3146 + Decitabine; first compound 8 µM): 0.385; relative viability (AZ3146 + Tozasertib; first compound 0.08 µM): 0.177; relative viability (AZ3146 + Tozasertib; first compound 0.253 µM): 0.199; relative viability (AZ3146 + Tozasertib; first compound 0.8 µM): 0.204; relative viability (AZ3146 + Tozasertib; first compound 2.53 µM): 0.177; relative viability (AZ3146 + Tozasertib; first compound 8 µM): 0.183; relative viability (GSK-J4 + Navitoclax; first compound 0.5 µM): 0.332; relative viability (GSK-J4 + Navitoclax; first compound 1.581 µM): 0.233; relative viability (GSK-J4 + Navitoclax; first compound 5 µM): 0.341; relative viability (GSK-J4 + Navitoclax; first compound 15.81 µM): 0.305; relative viability (GSK-J4 + Navitoclax; first compound 50 µM): 0.179
